Patent publication US4873240A, “Method for administering ethanolamine derivatives to livestock” (Beecham Group p.l.c., priority 1985, dated 1989)

Legend:
[1] = Weight gain, food intake and body composition of normal lean mice dosed for 28 days; format: in vivo, female C57Bl/6 normal lean mice
Protocol: (§1) Remale C57Bl/6 genetically obese (ob/ob) or normal lean mice were fed on a powdered breeders diet and given the compounds either once daily by oral gavage, or by admixture with the diet for 28 days. Fifty parts per million (ppm) in the diet is equivalent to a dose level of about eight to ten )obese mie) or twelve to thirteen (normal mice) milligrams per kilogram body weight per dya. Body lipid content and lean body mass were determined gravimetrically. There were seven or eight mice in each treatment group and results are expressed as a percentage of values for an untreated group of similar size.

[2] = Weight gain, food intake and body composition of genetically obese (ob/ob) mice dosed for 28 days; format: in vivo, female C57Bl/6 genetically obese (ob/ob) mice
Protocol: as §1

[3] = Weight gain and food conversion efficiency of broiler chicken, 30-56 days; format: in vivo, Marshall sexed broiler chicken; conditions: 3 ppm in feed
Description: Marshall sexed broiler chicken, 30 days old, were fed on a basal feed, which was designed as a practical broiler and finisher feed. Additive (see below) was substituted for maize in tis diet. The supplemented diets were fed until the birds were 56 days old.

[4] = Pup weight and rectal temperature after administration to pregnant rats; format: in vivo, Sprague-Dawley rats; conditions: days 2-20 of gestation, mean ± S.E.M.
Protocol: Female Sprague-Dawley rates were mated, fed on powdered rodent diet and given compound P1 as a dietary admixture (150 ppm) from days 2-20 of gestation. Thereafter no further compound was given. Parturition occurred on day 22. The pups were weight 24 hours after birth. 48 hours after birth 7 pups were removed at random from 3 control and 3 treated litters, placed 29° C. and rectal temperature was monitored. Results are expressed as means of the number of values shown in parentheses±S.E.M.

Structure (SMILES): COC(=O)COc1ccc(CC(C)NCC(O)c2cc(Cl)c(N)c(Cl)c2)cc1 (centres unmarked) [Preparation P5, N-[2-(4-carbomethoxymethoxyphenyl)-1-methylethyl]-2-hydroxy-2-(4-amino-3,5-dichlorophenyl)ethanamine]
- Food Intake ([1]; 50 ppm in diet): 108 % of control values
- Gain/Intake ([1]; 50 ppm in diet): 116 % of control values
- Lean Body mass ([1]; 50 ppm in diet): 108 % of control values
- Weight Gain ([1]; 50 ppm in diet): 125 % of control values

Structure (SMILES): COC(=O)c1ccc(CC(C)NCC(O)c2ccc(O)c(CO)c2)cc1 (centres unmarked) [Preparation P3]
- Amt. of Lipid ([1]; 20 mg/kg po once daily): 69 % of control values
- Gain/Intake ([1]; 20 mg/kg po once daily): 90 % of control values
- Lean Body mass ([1]; 20 mg/kg po once daily): 113 % of control values
- Weight Gain ([1]; 20 mg/kg po once daily): 171 % of control values

Structure (SMILES): COC(=O)c1ccc(CC(C)NCC(O)c2ccc(O)c(CO)c2)cc1 [Preparation P2, N-[2-(4-carbomethoxyphenyl)-L-methylethyl]-2-hydroxy-2-(4-hydroxy-3-hydroxymethylphenyl) ethanamine]
- Amt. of Lipid ([2]; 10 mg/kg po once daily): 77 % of control values
- Food Intake ([2]; 10 mg/kg po once daily): 111 % of control values
- Gain/Intake ([2]; 10 mg/kg po once daily): 70 % of control values
- Lean Body mass ([2]; 10 mg/kg po once daily): 113 % of control values
- Weight Gain ([2]; 10 mg/kg po once daily): 78 % of control values
- Amt. of Lipid ([2]; 36 ppm in diet): 101 % of control values
- Food Intake ([2]; 36 ppm in diet): 112 % of control values
- Gain/Intake ([2]; 36 ppm in diet): 99 % of control values
- Lean Body mass ([2]; 36 ppm in diet): 112 % of control values
- Weight Gain ([2]; 36 ppm in diet): 111 % of control values
- Amt. of Lipid ([1]; 75 ppm in diet): 78 % of control values
- Food Intake ([1]; 75 ppm in diet): 107 % of control values
- Gain/Intake ([1]; 75 ppm in diet): 120 % of control values
- Lean Body mass ([1]; 75 ppm in diet): 107 % of control values
- Weight Gain ([1]; 75 ppm in diet): 128 % of control values

Structure (SMILES): COC(=O)c1ccc(CC(C)NCC(O)c2ccccc2)cc1 (centres unmarked) [Preparation P1, N-[2-(4-carbomethoxyphenyl)-1-methylethyl]-2-hydroxy-2-phenylethanamine]
- Amt. of Lipid ([2]; 50 ppm in diet): 103 % of control values
- Food Intake ([2]; 50 ppm in diet): 119 % of control values
- Gain/Intake ([2]; 50 ppm in diet): 168 % of control values
- Lean Body mass ([2]; 50 ppm in diet): 111 % of control values
- Weight Gain ([2]; 50 ppm in diet): 200 % of control values
- Weight gain 30-56 days ([3]; female, control 1309): 1326 g
- Food conversion efficiency 30-56 days ([3]; female, control .329): .333
- Weight gain 30-56 days ([3]; male, control 1644): 1784 g
- Food conversion efficiency 30-56 days ([3]; male, control .367): .385
- Weight, All pups ([4]; 150 ppm in diet of dams, 24 hours after birth, n=52, control 5.3 ± 0.1): 5.9 ± 0.1 g
- Weight, Pups monitored for body temperature ([4]; 150 ppm in diet of dams, n=7, control 5.0 ± 0.1): 6.6 ± 0.4 g
- Drop in rectal temperature after 10 mins @ 29° C. ([4]; pups 48 hours after birth, dams 150 ppm in diet, n=7, control 2.76 ± 0.16): 1.98 ± 0.06
- Rectal temperature after 10 mins @ 29° C. ([4]; pups 48 hours after birth, dams 150 ppm in diet, n=7, control 29.4 ± 0.4): 31.2 ± 0.5

Structure (SMILES): COC(=O)COc1ccc(CC(C)NCC(O)c2cccc(Cl)c2)cc1 (centres unmarked) [Preparation P4, N-[2-(4-carbomethoxymethoxyphenyl)-1-methylethl]-2-hydroxy-2-(3-chlorophenyl)ethanamine]
- Amt. of Lipid ([2]; 0.46 ppm in diet): 105 % of control values
- Food Intake ([2]; 0.46 ppm in diet): 116 % of control values
- Gain/Intake ([2]; 0.46 ppm in diet): 124 % of control values
- Lean Body mass ([2]; 0.46 ppm in diet): 107 % of control values
- Weight Gain ([2]; 0.46 ppm in diet): 143 % of control values
